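Cultured in 96-well plates, cells were exposed to test compound for 48 hours across five concentrations. TGI denotes the concentration required for complete inhibition of growth.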
Experiments:
Assay in all cases: NCI tumour cell line growth inhibition, 48 h
[1] = test system: TK-10 renal
[2] = test system: CCRF-CEM leukemia
[3] = test system: SK-MEL-2 melanoma
[4] = test system: SK-MEL-28 melanoma
[5] = test system: UO-31 renal
[6] = test system: M19-MEL melanoma
[7] = test system: DMS 114 small cell lung
[8] = test system: M14 melanoma
[9] = test system: SN12C renal
[10] = test system: U251 CNS
[11] = test system: HCT-15 colon
[12] = test system: CAKI-1 renal
[13] = test system: RXF 393 renal
[14] = test system: MALME-3M melanoma
[15] = test system: MOLT-4 leukemia
[16] = test system: COLO 205 colon
[17] = test system: KM20L2 colon
[18] = test system: HT29 colon
[19] = test system: SNB-19 CNS
[20] = test system: SR leukemia
[21] = test system: NCI-H522 lung
[22] = test system: EKVX NSCLC
[23] = test system: OVCAR-8 ovarian
[24] = test system: ACHN renal
[25] = test system: IGROV1 ovarian
[26] = test system: SK-OV-3 ovarian
[27] = test system: UACC-62 melanoma
[28] = test system: LXFL 529 NSCLC
[29] = test system: SK-MEL-5 melanoma
[30] = test system: SW-620 colon
[31] = test system: 786-0 renal
[32] = test system: SF-268 CNS
[33] = test system: KM12 colon
[34] = test system: OVCAR-5 ovarian
[35] = test system: DLD-1 colon
[36] = test system: SF-539 CNS
[37] = test system: SNB-78 CNS
[38] = test system: SF-295 CNS
[39] = test system: XF 498 CNS
[40] = test system: HCC-2998 colon
[41] = test system: NCI-H23 lung
[42] = test system: HOP-92 NSCLC
[43] = test system: K-562 leukemia
[44] = test system: A549 NSCLC
[45] = test system: OVCAR-4 ovarian
[46] = test system: OVCAR-3 ovarian
[47] = test system: NCI-H460 lung
[48] = test system: RPMI-8226 leukemia
[49] = test system: SNB-75 CNS
[50] = test system: HCT-116 colon
[51] = test system: HOP-62 NSCLC
[52] = test system: HL-60(TB) leukemia
[53] = test system: UACC-257 melanoma
[54] = test system: NCI-H226 lung
[55] = test system: DMS 273 small cell lung
[56] = test system: LOX IMVI melanoma

In the case of `COc1cccc(/C=C(\NC(C)=O)c2nc3ccc(Cl)cc3[nH]2)c1`, the TGI [1] is reported as > 100 µM, the TGI [2] is reported as > 100 µM and the TGI [3] is reported as > 100 µM. For the same compound, the TGI [4] was > 100 µM, the TGI [5] was > 100 µM and the TGI [6] was > 100 µM. For the same compound, the TGI [7] was > 100 µM, the TGI [8] was > 100 µM and the TGI [9] was > 100 µM. For the same compound, the TGI [10] was > 100 µM, the TGI [11] was > 100 µM and the TGI [12] was > 100 µM. The TGI [13] was > 100 µM, the TGI [14] was > 100 µM and the TGI [15] was > 100 µM. The TGI [16] was > 100 µM, the TGI [17] was > 100 µM and the TGI [18] was > 100 µM. The TGI [19] was > 100 µM, the TGI [20] was > 100 µM and the TGI [21] was > 100 µM. The TGI [22] was > 100 µM, the TGI [23] was > 100 µM and the TGI [24] was > 100 µM. For the same compound, the TGI [25] was > 100 µM, the TGI [26] was > 100 µM and the TGI [27] was > 100 µM. For the same compound, the TGI [28] was > 100 µM, the TGI [29] was > 100 µM and the TGI [30] was > 100 µM. For the same compound, the TGI [31] was > 100 µM, the TGI [32] was > 100 µM and the TGI [33] was > 100 µM. For the same compound, the TGI [34] was > 100 µM, the TGI [35] was > 100 µM and the TGI [36] was > 100 µM. The TGI [37] was > 100 µM, the TGI [38] was > 100 µM and the TGI [39] was > 100 µM. The TGI [40] was > 100 µM, the TGI [41] was > 100 µM and the TGI [42] was > 100 µM. For the same compound, the TGI [43] was > 100 µM, the TGI [44] was > 100 µM and the TGI [45] was > 100 µM. For the same compound, the TGI [46] was > 100 µM.

In the case of `COc1ccc(N2C(Cl)C(=O)C2c2c[nH]c3ccccc23)cc1` (stereo unspecified), the TGI [1] is reported as > 100 µM, the TGI [2] is reported as > 100 µM and the TGI [3] is reported as > 100 µM. The TGI [4] was > 100 µM, the TGI [5] was > 100 µM and the TGI [6] was > 100 µM. For the same compound, the TGI [47] was > 100 µM, the TGI [7] was > 100 µM and the TGI [8] was > 100 µM. For the same compound, the TGI [9] was > 100 µM, the TGI [10] was > 100 µM and the TGI [48] was > 100 µM. For the same compound, the TGI [13] was > 100 µM, the TGI [49] was > 100 µM and the TGI [14] was > 100 µM. For the same compound, the TGI [15] was > 100 µM, the TGI [50] was > 100 µM and the TGI [16] was > 100 µM. The TGI [17] was > 100 µM, the TGI [18] was > 100 µM and the TGI [19] was > 100 µM. The TGI [20] was > 100 µM, the TGI [21] was > 100 µM and the TGI [22] was > 100 µM. For the same compound, the TGI [23] was > 100 µM, the TGI [25] was > 100 µM and the TGI [26] was > 100 µM. For the same compound, the TGI [27] was > 100 µM, the TGI [28] was > 100 µM and the TGI [29] was > 100 µM. The TGI [51] was > 100 µM, the TGI [30] was > 100 µM and the TGI [32] was > 100 µM. The TGI [52] was > 100 µM, the TGI [53] was > 100 µM and the TGI [33] was > 100 µM. The TGI [34] was > 100 µM, the TGI [36] was > 100 µM and the TGI [38] was > 100 µM. The TGI [39] was > 100 µM, the TGI [41] was > 100 µM and the TGI [42] was > 100 µM. The TGI [43] was > 100 µM, the TGI [44] was > 100 µM and the TGI [45] was > 100 µM. The TGI [46] was > 100 µM.

For `CC(c1ccccc1)N1O[C@]12CC[C@@]1(C)C(CCCC13OCCO3)C2` (stereo partly specified), the TGI [1] was 32.2 µM, the TGI [4] was > 100 µM and the TGI [5] was 31.9 µM. For the same compound, the TGI [6] was 51 µM, the TGI [47] was 38.1 µM and the TGI [54] was > 100 µM. For the same compound, the TGI [7] was 27.4 µM, the TGI [8] was 32.1 µM and the TGI [9] was 75.6 µM. For the same compound, the TGI [10] was 37.6 µM, the TGI [48] was > 100 µM and the TGI [11] was 46.2 µM. It also gave a TGI [12] of 37.2 µM, a TGI [13] of 54.5 µM and a TGI [49] of 39 µM. For the same compound, the TGI [14] was 83.9 µM, the TGI [50] was 29.6 µM and the TGI [16] was 32.5 µM. For the same compound, the TGI [17] was > 100 µM, the TGI [18] was 44.3 µM and the TGI [19] was > 100 µM. For the same compound, the TGI [20] was 40.4 µM, the TGI [21] was 32 µM and the TGI [23] was 37.2 µM. For the same compound, the TGI [24] was 30.3 µM, the TGI [25] was 12.1 µM and the TGI [26] was > 100 µM. The TGI [27] was 35.4 µM, the TGI [29] was 93.1 µM and the TGI [51] was > 100 µM. The TGI [30] was 34.4 µM, the TGI [31] was 36.5 µM and the TGI [32] was > 100 µM. For the same compound, the TGI [53] was 43.4 µM, the TGI [33] was 43.2 µM and the TGI [34] was > 100 µM. The TGI [35] was 32.7 µM, the TGI [55] was 36 µM and the TGI [36] was > 100 µM. For the same compound, the TGI [37] was 40.9 µM, the TGI [38] was 44.3 µM and the TGI [39] was 44.3 µM. For the same compound, the TGI [56] was 26.2 µM, the TGI [40] was > 100 µM and the TGI [41] was > 100 µM. It also gave a TGI [42] of 23.7 µM, a TGI [44] of 43 µM and a TGI [45] of 33.2 µM. It also gave a TGI [46] of 34.4 µM.

Reference: PubChem BioAssay (NCI)
